# Test results published in paper PMC10685318, “Trans-cyclosulfamidate mannose-configured cyclitol allows isoform-dependent inhibition of GH47 α-D-mannosidases through a bump–hole strategy” (Chemical Science, 2023).
# Biological target: T1, MAN2B2 (Homo sapiens, UniProt Q9Y2E5)
# T1 construct: expressed in transfected cells
# T1 sequence (Q9Y2E5 24-1009): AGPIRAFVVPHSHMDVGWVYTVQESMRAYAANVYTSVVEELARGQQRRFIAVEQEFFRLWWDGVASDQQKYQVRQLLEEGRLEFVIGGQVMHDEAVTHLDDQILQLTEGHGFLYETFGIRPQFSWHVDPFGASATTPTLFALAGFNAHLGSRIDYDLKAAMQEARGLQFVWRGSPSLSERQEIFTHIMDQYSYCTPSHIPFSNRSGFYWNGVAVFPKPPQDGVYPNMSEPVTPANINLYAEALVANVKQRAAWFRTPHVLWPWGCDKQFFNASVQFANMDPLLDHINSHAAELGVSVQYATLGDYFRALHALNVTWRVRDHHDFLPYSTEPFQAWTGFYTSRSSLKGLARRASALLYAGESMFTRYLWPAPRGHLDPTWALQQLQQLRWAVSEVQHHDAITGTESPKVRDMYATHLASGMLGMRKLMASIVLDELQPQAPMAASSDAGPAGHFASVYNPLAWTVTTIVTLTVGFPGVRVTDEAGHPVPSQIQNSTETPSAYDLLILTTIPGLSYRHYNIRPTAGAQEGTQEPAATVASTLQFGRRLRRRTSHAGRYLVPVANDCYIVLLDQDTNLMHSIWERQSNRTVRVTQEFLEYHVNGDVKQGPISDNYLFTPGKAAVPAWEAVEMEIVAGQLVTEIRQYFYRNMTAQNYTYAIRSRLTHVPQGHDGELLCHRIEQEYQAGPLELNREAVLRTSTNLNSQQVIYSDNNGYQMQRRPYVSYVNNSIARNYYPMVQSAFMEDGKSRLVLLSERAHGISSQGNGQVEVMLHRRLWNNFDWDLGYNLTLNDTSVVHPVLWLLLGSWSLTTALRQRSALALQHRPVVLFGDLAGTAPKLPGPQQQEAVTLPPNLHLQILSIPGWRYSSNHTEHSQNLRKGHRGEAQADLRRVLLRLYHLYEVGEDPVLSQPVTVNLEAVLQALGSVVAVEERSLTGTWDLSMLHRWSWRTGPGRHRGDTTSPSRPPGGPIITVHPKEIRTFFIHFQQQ
# Assay: 4-MU-α-man activity assay in overexpressed cell lysates
# Assay type: biochemical
# Source text: Finally, selectivity versus a panel of related exo-mannosidases was investigated. We first tested inhibition against all five human GH38 retaining α-mannosidases in overexpressed cell lysates using 4-methylumbelliferyl-α-mannoside (4-MU-α-man): Golgi mannosidase II and IIx (MAN2A1 and MAN2A2), cytosolic MAN2C1 and lysosomal MAN2B1 and MAN2B2. This α-mannosidase family follows a different conformational itinerary than GH47: ^0S2 → B2,5 → ^1S5.[35] […] Of note, the presence of cobalt has been associated with conformational changes in the active site of some GH38 α-mannosidases, which might affect the binding interaction with inhibitors.[36] Nevertheless, additional research is required to explore which specific metal ion is present in the MAN2C1 active site in its in vivo state.
# Trans-Cyclosulfamidate Cyclitols Males et al.
# 2.3 GH38 α-mannosidases and GH2 β-mannosidase inhibition studies
# All chemicals were of analytical grade and purchased from Sigma-Aldrich unless stated otherwise.
# Optimal stability of cell homogenates and enzyme working stocks was ensured by preparation and temporary storage on ice. Cell homogenates were prepared and used on the same day. Protein concentrations were quantified using the Pierce BCA Protein Assay Kit (ThermoFisher). Protein samples were measured in clear flat-bottom polystyrene 96 well microplates (Greiner Bio-One) using a EMax Plus Microplate Reader (Molecular Devices). Activity measurements of human GH38 α-mannosidases and bacterial β-mannosidase BtMan2A were performed in black flat-bottom polystyrene 96 wells microplates (Greiner Bio-One) and total fluorescence was measured using a Perkin Elmer LS-55 fluorescence spectrometer at wavelengths λex = 366 and λem = 445 nm, with the signal optimized for medium gain readings. The fluorescence values of each enzyme sample were corrected for the background signal of a blank sample containing no enzyme. In the case of IC50 determinations, values were normalized against a control sample containing enzyme without added inhibitor. For a single experiment, three separate curves were fitted from a technical triplicate by setting the inhibitor concentration in µM against the normalized response using GraphPad Prism 8.4.2 software. The Prism functions ‘[inhibitor] versus normalized response’ and ‘[inhibitor] versus normalized response -- variable slope’ were compared for each curve using the Akaike’s Information Criterion method to select the preferred model. Reported IC50 values are mean ± standard deviation from a biological […]
# General cell culture protocol
# HEK293T cells were grown to confluency at 37 °C under a 5% CO2 atmosphere in Dulbecco’s Modified Eagle’s Medium (DMEM) with a high glucose concentration (Capricorn Scientific, DMEM-HPXA) that was supplemented with 10% fetal calf serum, 0.1% (w/v) penicillin/streptomycin and 1% (v/v) Glutamax. Cells were passaged twice a week to new round polystyrene (PS) tissue culture dishes (Sarstedt) by detachment off the former culture plates by careful pipetting. To prepare cell pellets for activity measurements, plates were grown to confluency and harvested in phosphate buffered saline (PBS). After centrifugation at 1500 rpm for 5 min, the remaining PBS was aspirated and the cells were resuspended in fresh PBS. The concentration of the resulting suspension was then counted using a TC20 automated cell counter (BioRad). Aliquots were centrifuged at 2000 rpm for 5 min and the resulting cell pellets were stored at -80 °C until further use.
# 4-MU activity assay protocol for human GH38 α-mannosidases
# HEK293T cells stably overexpressing human GH38 α-mannosidases MAN2A1, MAN2A2, MAN2B1, MAN2B2 and MAN2C1 were prepared as previously described[11] and were kindly donated by Dr. C. L.
# Kuo. Homogenates were prepared by sonicating cell pellets (Sonics VibraCell, 5x1 s with 30 s interval at 20% amplitude) in 150 mM McIlvain buffer of pH 5.5 (MAN2A1, MAN2A2), pH 4.5 (MAN2B1, MAN2B2) or pH 6.7 (MAN2C1) containing either 2 mM ZnCl2 (MAN2A1, MAN2A2, MAN2B1, MAN2B2) […]
smiles,measurement,setting,value
"O=S1(=O)N[C@@H]2[C@@H](O)[C@@H](O)[C@H](O)[C@@H](CO)[C@H]2O1 [compound 6, 1,6-trans-manno-cyclosulfamidate]",activity when the buffer was enriched with CoCl2,CoCl2,no activity
same,IC50,Zn2+,> 1 mM
